This note sets out measurements from ChEMBL document CHEMBL5518236, “Discovery of Clinical Candidate AZD5462, a Selective Oral Allosteric RXFP1 Agonist for Treatment of Heart Failure” (J Med Chem, 2024).

Active and inactive are the calls of the source. The rule behind the calls is not given here.

Series [1] can be described thus: Metabolic stability in human liver microsomes assessed as unbound intrinsic clearance at 1 uM measured upto 30 mins by LC-MS/MS analysis. It counts as ADME, Microsome. Conditions: 0.5 h.
A short description of series [2]: Octanol/water partition coefficient, logD of the compound at pH 7.4 by shake flask method. Format: physicochemical.
Series [3] can be described thus: Apparent permeability across apical to basolateral side in human Caco-2 cells at pH 7.4 by LC-MS/MS analysis. It counts as ADME, cell-based. Conditions: Caco-2, pH 7.4. (In general: Caco-2 monolayers are a common model of the intestinal barrier.)
Series [4] in a line: Metabolic stability in human hepatocytes assessed as intrinsic clearance measured per 10^6 viable cells/ml at 1 uM measured upto 120 mins by LC-MS/MS analysis. Conditions: read-out: CLH. It counts as ADME, cell-based, Hepatocyte.
Series [5] in a line: Metabolic stability in human liver microsomes assessed as intrinsic clearance at 1 uM measured upto 30 mins by LC-MS/MS analysis. Format: ADME, Microsome. Conditions: read-out: CLH.
Series [6] is described as follows: Metabolic stability in human hepatocytes assessed as unbound intrinsic clearance measured per 10^6 viable cells/ml at 1 uM measured upto 120 mins by LC-MS/MS analysis. To be noted: 2 h. Format: ADME, cell-based, Hepatocyte.
Series [7] addresses T1, Relaxin receptor 1 (Homo sapiens, UniProt Q9HBX9).
T1 sequence (Q9HBX9 whole entry): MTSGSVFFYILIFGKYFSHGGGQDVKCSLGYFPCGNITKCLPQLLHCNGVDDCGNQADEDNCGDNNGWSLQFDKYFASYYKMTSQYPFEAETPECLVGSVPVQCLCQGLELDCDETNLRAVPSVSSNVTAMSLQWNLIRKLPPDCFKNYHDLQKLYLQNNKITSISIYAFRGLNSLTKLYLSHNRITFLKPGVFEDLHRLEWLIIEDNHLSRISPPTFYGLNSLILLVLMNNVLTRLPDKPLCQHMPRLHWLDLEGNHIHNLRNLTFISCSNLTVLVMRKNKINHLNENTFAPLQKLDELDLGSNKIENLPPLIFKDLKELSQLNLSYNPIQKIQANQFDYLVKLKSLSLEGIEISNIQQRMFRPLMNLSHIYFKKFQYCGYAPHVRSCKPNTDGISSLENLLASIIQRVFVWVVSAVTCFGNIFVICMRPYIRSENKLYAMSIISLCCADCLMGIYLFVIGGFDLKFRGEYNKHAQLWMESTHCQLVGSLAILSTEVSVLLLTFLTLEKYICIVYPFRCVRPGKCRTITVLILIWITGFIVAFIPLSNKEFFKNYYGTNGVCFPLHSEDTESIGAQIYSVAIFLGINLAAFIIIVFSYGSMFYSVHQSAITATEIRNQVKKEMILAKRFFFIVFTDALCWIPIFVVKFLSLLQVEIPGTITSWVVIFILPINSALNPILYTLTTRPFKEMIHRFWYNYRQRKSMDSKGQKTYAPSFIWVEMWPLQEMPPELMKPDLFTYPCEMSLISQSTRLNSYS
Description: Agonist activity at human RXFP1 expressed in CHO cells assessed as increase in cAMP level measured after 2 hrs by HTRF cAMP assay

Series [8] deals with T2, Relaxin receptor 1 (Mus musculus, UniProt Q6R6I7).
T2 sequence (Q6R6I7 whole entry): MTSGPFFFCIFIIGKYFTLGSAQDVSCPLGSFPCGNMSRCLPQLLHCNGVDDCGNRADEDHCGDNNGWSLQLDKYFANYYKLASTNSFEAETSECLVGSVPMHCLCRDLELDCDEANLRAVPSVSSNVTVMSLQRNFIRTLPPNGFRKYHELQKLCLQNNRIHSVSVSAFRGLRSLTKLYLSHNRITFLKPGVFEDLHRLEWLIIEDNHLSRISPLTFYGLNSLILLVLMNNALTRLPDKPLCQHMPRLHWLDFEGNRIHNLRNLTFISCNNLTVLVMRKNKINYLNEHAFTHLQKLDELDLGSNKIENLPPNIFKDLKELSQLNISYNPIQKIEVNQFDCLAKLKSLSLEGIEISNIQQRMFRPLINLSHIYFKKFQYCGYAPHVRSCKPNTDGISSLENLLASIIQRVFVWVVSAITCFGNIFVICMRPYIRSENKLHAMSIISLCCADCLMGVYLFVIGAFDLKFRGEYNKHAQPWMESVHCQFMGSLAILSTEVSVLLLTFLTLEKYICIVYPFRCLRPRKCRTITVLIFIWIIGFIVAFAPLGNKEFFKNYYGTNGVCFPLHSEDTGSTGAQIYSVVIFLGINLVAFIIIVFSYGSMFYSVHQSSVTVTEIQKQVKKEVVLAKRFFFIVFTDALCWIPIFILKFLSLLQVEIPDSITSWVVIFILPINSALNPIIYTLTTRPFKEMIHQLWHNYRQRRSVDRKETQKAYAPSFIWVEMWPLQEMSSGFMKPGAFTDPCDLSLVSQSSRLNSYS
Description: Agonist activity at mouse RXFP1 expressed in CHO-K1 cells assessed as increase in cAMP level measured after 2 hrs by HTRF cAMP assay

The nature of series [9]: Metabolic stability in rat hepatocytes assessed as unbound intrinsic clearance measured per 10^6 viable cells/ml at 1 uM measured upto 120 mins by LC-MS/MS analysis. It counts as ADME, cell-based, Hepatocyte. Conditions: 2 h.
Series [10] can be described thus: Clearance in Han Wistar rat at 0.96 micromol/kg, iv by LC-MS/MS analysis. Format: ADME, organism-based. Conditions: in vivo, dose 0.96 µmol/kg.
Series [11] can be described thus: Oral bioavailability in Han Wistar rat at 1.9 micromol/kg by LC-MS/MS analysis. Format: ADME, organism-based. Conditions: in vivo, 1.9 µmol/kg.
A short description of series [12]: Half life in Han Wistar rat at 0.96 micromol/kg, iv by LC-MS/MS analysis. Conditions: in vivo, dose 0.96 µmol/kg. It counts as ADME, organism-based.
Series [13] can be described thus: Volume of distribution at steady state in Han Wistar rat at 0.96 micromol/kg, iv by LC-MS/MS analysis. It counts as ADME, organism-based. Conditions: in vivo, dose 0.96 µmol/kg, read-out: Vdss.
Series [14] can be described thus: Protein binding in rat plasma assessed as fraction unbound at 5 uM measured after 18 hrs by LC-MS/MS analysis. Format: ADME, cell-free. To be noted: read-out: PPB.
Series [15] addresses T3, Relaxin receptor 1 (Homo sapiens) (UniProt Q9HBX9).
T3 sequence (whole entry): T1 sequence (Q9HBX9 whole entry)
Conditions: CHO-K1, time 15.0 min.

Series [16] is described as follows: Protein binding in human plasma assessed as fraction unbound at 5 uM measured after 18 hrs by LC-MS/MS analysis. It counts as ADME, cell-free. To be noted: read-out: PPB.

The term logD denotes the decadic logarithm of the distribution of all forms, ionised or not, between an organic phase and buffer at a given pH. By Papp A→B is commonly meant the apparent permeability from the apical to the basolateral side of a cell layer. As for `COc1cc(F)c(O[C@H]2CC[C@@](C)(C(=O)O)CC2)cc1C(=O)N[C@@H]1[C@H]2CC[C@H](C2)[C@@H]1C(=O)NCC(C)(C)C(F)(F)F`, the results for the CL free in [1] and in [6] were 23 µL/min/mg and 8.6 µL/min, respectively. Also, in series [2], the logD turned out to be 3.19. In addition, in [3], the Papp A→B amounted to 66 ×10⁻⁶ cm/s. In addition, the hepatocyte CLint at 1 µM in series [4] came out at 4.2 µL/min/1e6 cells. Moreover, the microsomal CLint at 1 µM in series [5] was 13 µL/min/mg.

For orientation: EC50 means the concentration that produces a half-maximal response. High values mean lower potency in that assay, low ones higher potency in that assay. Regarding `CC1(CNC(=O)[C@H]2[C@@H]3CC[C@@H](C3)[C@H]2NC(=O)c2cc(O[C@H]3CC[C@@](C)(C(=O)O)CC3)ccn2)CCC1`, the CL free in [1] was determined as 35 µL/min/mg; in series [6], 3.3 µL/min. The same compound had a pH-dependent lipophilicity (logD) in series [2] of 2.5. Moreover, in series [4], the hepatocyte CLint at 1 µM amounted to 2.3 µL/min/1e6 cells. The microsomal CLint at 1 µM in series [5] is 29 µL/min/mg. For the same compound, a half-maximal response in series [7] (EC50) required 1580 nM.

`Cc1cc(F)c(O[C@H]2CC[C@@](C)(C(=O)O)CC2)cc1C(=O)N[C@@H]1[C@H]2CC[C@H](C2)[C@@H]1C(=O)NCC1(C)CCC1`: the figures for the CL free in [1] and in series [6] were 23 µL/min/mg and 22 µL/min, respectively. Further, the log distribution coefficient (logD) in [2] stood at 2.83. Also, the hepatocyte CLint at 1 µM in series [4] was determined as 15 µL/min/1e6 cells. For the same compound, the microsomal CLint at 1 µM in series [5] stood at 161 µL/min/mg. In series [7], this compound gave an EC50 of 2000 nM.

As to `COc1cc(F)c(O[C@H]2CC[C@](C(=O)O)(C(F)(F)F)CC2)cc1C(=O)N[C@@H]1[C@H]2CC[C@H](C2)[C@@H]1C(=O)NCC1(C)CCC1`, the CL free is less than 5.5 µL/min/mg in [1] and 8.8 µL/min in series [6]. In [2], the logD stood at 2.1. Further, the Papp A→B in series [3] amounted to 35 ×10⁻⁶ cm/s. In addition, in series [4], the hepatocyte CLint at 1 µM amounted to 3.9 µL/min/1e6 cells. The microsomal CLint at 1 µM in series [5] is less than 3 µL/min/mg.

Take `COc1cc(F)c(C[C@H]2CC[C@@](C)(C(=O)O)CC2)cc1C(=O)N[C@@H]1[C@H]2CC[C@H](C2)[C@@H]1C(=O)NCC1(C)CCC1`: the CL free in series [1] was found to be 269 µL/min/mg; in series [6], 43 µL/min. The same compound returned a log distribution coefficient (logD) in series [2] of 4.3. Also, in [4], the hepatocyte CLint at 1 µM is 9.8 µL/min/1e6 cells. Also, the microsomal CLint at 1 µM in series [5] was determined as 78 µL/min/mg. The EC50 in series [7] was 158 nM.

As to `CC1(CNC(=O)[C@H]2[C@@H]3CC[C@@H](C3)[C@H]2NC(=O)c2cc(O[C@H]3CC[C@@](C)(C(=O)O)CC3)c(F)cc2OCF)CCC1`, the figures for the CL free in series [1] and in [6] were 62 µL/min/mg and 15 µL/min, respectively. Further, the logD in [2] stood at 3.3. The hepatocyte CLint at 1 µM in [4] was 8.4 µL/min/1e6 cells. The microsomal CLint at 1 µM in [5] turned out to be 36 µL/min/mg. The compound also showed an EC50 in [7] of 6.31 nM.

Regarding `CC1(CNC(=O)[C@H]2C3CCC(C3)[C@H]2NC(=O)c2cc(O[C@H]3CC[C@@](C)(C(=O)O)CC3)c(C#N)cc2F)CCC1` (some centres not stated), the CL free in series [1] turned out to be 27 µL/min/mg; in [6], 16 µL/min. The same compound showed a pH-dependent lipophilicity (logD) in series [2] of 3.3. For the same compound, the hepatocyte CLint at 1 µM in series [4] is 7.9 µL/min/1e6 cells. Further, the microsomal CLint at 1 µM in series [5] stood at 14 µL/min/mg. Besides, the response in series [7] was half-maximal at 15.8 nM (EC50).

Take `COc1cc(F)c(O[C@H]2CC[C@@](CO)(C(=O)O)CC2)cc1C(=O)N[C@@H]1[C@H]2CC[C@H](C2)[C@@H]1C(=O)NCC1(C)CCC1`: the CL free is less than 6.2 µL/min/mg in series [1] and 11 µL/min in [6]. The logD in series [2] is 1.5. In addition, the Papp A→B in series [3] stood at 3.1 ×10⁻⁶ cm/s. Besides, the hepatocyte CLint at 1 µM in series [4] was 6.2 µL/min/1e6 cells. The microsomal CLint at 1 µM in [5] was less than 5.1 µL/min/mg.

For the compound `COc1cc(C(F)(F)F)c(O[C@H]2CC[C@@](C)(C(=O)O)CC2)cc1C(=O)N[C@@H]1[C@H]2CC[C@H](C2)[C@@H]1C(=O)NCC1(C)CCC1`, the CL free in series [1] turned out to be 44 µL/min/mg; in series [6], 93 µL/min. Besides, the logD in series [2] came to 4.1. Further, in series [4], the hepatocyte CLint at 1 µM stood at 3.9 µL/min/1e6 cells. Besides, the microsomal CLint at 1 µM in series [5] turned out to be 20 µL/min/mg. In series [7], this compound showed a half-maximal effective concentration (EC50) of 31.6 nM.

What is called clearance is the rate of elimination divided by the concentration. A lower clearance goes with a low capacity for elimination. As usually defined, the bioavailability is dose-corrected exposure relative to a reference, in per cent. Higher therefore signals good availability. Usually half-life stands for the time in which the quantity being followed falls by half. Take `COc1cc(F)c(O[C@H]2CC[C@@H](C(=O)O)CC2)cc1C(=O)N[C@@H]1[C@H]2CC[C@H](C2)[C@@H]1C(=O)NCC(C)(C)C`: the CL free is 8.5 µL/min/mg in series [1], 133 µL/min in series [9] and 3.4 µL/min in series [6]. Besides, the EC50 in series [8] was greater than 39800 nM; in series [7], 1000 nM. The clearance in [10] came out at 64 mL/min/kg. Further, the logD in series [2] worked out at 2.3. In [11], this compound came in with a bioavailability of 5.6%. The hepatocyte CLint at 1 µM in [4] came to 2.2 µL/min/1e6 cells. In series [12], the half-life was 1.8 h. In addition, the microsomal CLint at 1 µM in series [5] amounted to 6.8 µL/min/mg. In series [13], the Vd was determined as 0.6 L/kg. Moreover, in series [14], the fraction unbound at 18 h, 5 µM was determined as 0.079.

As for `CC(C)Oc1ccccc1C(=O)Nc1ccccc1C(=O)Nc1cccc(S(=O)(=O)C(F)(F)F)c1`, in series [2], the logD is greater than 4. In addition, in series [15], the pEC50 entry was “inactive”. Besides, the fraction unbound at 18 h, 5 µM in series [16] and in series [14] was less than 0.0002 each time. Also, the CL free in series [6] was 3.07 10^3uL/min.
